Reference: patent US20030149021A1, “Piperazine mono(dithio)carbamate ester compounds and analogs thereof: preparation method and uses thereof” (Medinox, Inc., priority 2001, published 2003)

Legend:
[1] = Preliminary acute toxicity in mice; type: in vivo
Mouse sarcoma 180 (S180) = assay: Anticancer activity against implanted mouse sarcoma 180 (S180), tumor weight; type: in vivo, mice; settings: for Inhibition (%) (% reduction in tumor mass): S180 in mice, tumor harvested at day 12
Method: Animals: Kuiming mice 18-22 g were provided by the animal department of Bejing Medical University. ICR mice were provided by Beijing Weitonglihua Experiemental Animal Technology, Inc. Each experiment used the same number of male mice and female mice.
Tumor cell line: Mouse sarcoma 180 (S180) was provided by the pharmaceutical group of National Key Laboratory of Natural and Mimic Medicine.
Compound 42 was prepared by the School of Pharmaceutical Sciences of Peking University. Cyclophosphoramide was purchased from Shanghai Hualian Pharmaceutical, Inc.
Tumor was removed from the mouse abdominal cavity. The tumor was diluted to 5×10^6/ml and implanted to the left axilla subcutaneously (0.2 ml per mouse) under sterile conditions. Twenty four (24) hours after implantation, animals were divided into two groups (10 mice per group), either 42 or cyclophosphoramide was given orally to animals once a day for 10 days.
At day 12, the tumor was harvested and the average tumor weight of each group was calculated.

Row | Structure (SMILES) | toxicity (in words) [1] | No of Death ([1]; mice, dose 10 G/kg, 20 animals at start) | inhibition against S180 (in words) (Mouse sarcoma 180 (S180)) | Inhibition (%) (% reduction in tumor mass) (Mouse sarcoma 180 (S180); 100 mg/kg orally once a day for 10 days) | Inhibition (%) (% reduction in tumor mass) (Mouse sarcoma 180 (S180); 500 mg/kg orally once a day for 10 days) | Inhibition (%) (% reduction in tumor mass) (Mouse sarcoma 180 (S180); 30 mg/kg orally once a day for 10 days)
1 | CN1CCN(C(=S)SCCC(C#N)(c2ccccc2)c2ccccc2)CC1.Cl [Compound 42, 4-Methyl-piperazine-1-carbodithioc acid 3-cyano-3,3-diphenyl-propyl ester hydrochloride] | low toxicity | 0 | significant inhibition | 74 | 80 | 
2 | O=P1(N(CCCl)CCCl)NCCCO1 (stereo not drawn) [Cyclophosphoramide, reference compound] |  |  |  |  |  | 73
